# Square brackets hold non-standard residues; d marks the D form. Peptide text beside a SMILES is read from it. pS = N[C@@H](COP(=O)(O)O)C(=O)O
# Biological target: 14-3-3ζ
# Assay: not given
# Set-up: method as in doi:10.1101/2024.03.15.585148
# Settings: FA assay; read-out: KD of monovalent Tau peptide to 14-3-3ζ; cited from earlier work
row,Structure (SMILES),Kd [µM]
1,CC(=O)N[C@@H](CO)C(=O)N[C@@H](CCCNC(=N)N)C(=O)N[C@H](C(=O)N1CCC[C@H]1C(=O)N[C@@H](COP(=O)(O)O)C(=O)N[C@@H](CC(C)C)C(=O)N1CCC[C@H]1C(=O)N[C@H](C(=O)N1CCC[C@H]1C(=O)N1CCC[C@H]1C(=O)N[C@H](C(=O)N[C@@H](CCCNC(=N)N)C(=O)N[C@@H](CCC(=O)O)C(=O)O)[C@@H](C)O)[C@@H](C)O)[C@@H](C)O [Tau pS214] (Ac-SRTP[pS]LPTPPTRE-OH; C-terminus assumed),> 100
2,CC[C@H](C)[C@H](NC(=O)[C@H](CC(N)=O)NC(=O)CNC(=O)[C@H](CC(C)C)NC(=O)[C@H](COP(=O)(O)O)NC(=O)CNC(=O)[C@H](CS)NC(=O)[C@H](CCCCN)NC(=O)[C@H](CO)NC(=O)[C@@H](NC(=O)[C@@H](NC(C)=O)C(C)C)[C@@H](C)O)C(=O)N[C@@H](Cc1c[nH]cn1)C(=O)N[C@@H](Cc1c[nH]cn1)C(=O)N[C@@H](CCCCN)C(=O)O [Tau pS324] (Ac-VTSKCG[pS]LGNIHHK-OH; C-terminus assumed),> 100

# Biological target: T1, 14-3-3ζ/Tau pS2 peptide interaction (Homo sapiens, UniProt P63104)
# T1 construct: made in house; host or cells: NiCo21 (DE3) E. coli
# T1 sequence (P63104 1-245): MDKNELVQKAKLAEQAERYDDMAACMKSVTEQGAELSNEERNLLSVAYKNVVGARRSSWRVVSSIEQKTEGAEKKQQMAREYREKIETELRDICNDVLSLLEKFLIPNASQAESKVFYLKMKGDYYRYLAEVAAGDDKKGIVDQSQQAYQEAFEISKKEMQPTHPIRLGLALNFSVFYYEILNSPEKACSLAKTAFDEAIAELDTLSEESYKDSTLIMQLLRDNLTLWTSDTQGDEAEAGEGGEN
# Assay: Fluorescence anisotropy compound titration to preformed 14-3-3ζ/Tau pS2 peptide complex
# Assay type: binding
# Settings: FA
# Description: With the compound library constructed, we sought to screen the stabilizing activity of the imidazole analogs for the 14-3-3ζ/Tau pS2 peptide interaction. In this regard, a fluorescence anisotropy (FA) assay was performed where each individual compound was titrated against a fixed concentration of 14-3-3ζ (100 nM) and fluorescein-labelled Tau pS2 peptide (10 nM; Fig. 3a and b, ESI ^† Fig. S4 and S5, Table 1, ESI ^† Table S1). Thereby, the fixed 14-3-3ζ concentration was based on the EC20 value of the binary complex formation to enable a sufficient dynamic window for ternary complex formation. […] For each compound dose–response curve, the background signal (titration without 14-3-3ζ) was subtracted, to exclude possible false positive results. […]
# chromatography (HisTrap high performance cartridges, Cytiva). […] Dialyzed protein was concentrated to ∼40 mg/mL, analyzed by Q -Tof LC/MS, and aliquots were flash -frozen for storage at −80 °C. […] Fractions containing the 14 -3-3 protein were pooled and concentrated to ∼60 mg/mL, analyzed Q -Tof LC/MS, and aliquots were flash -frozen for storage at −80°C.
# (§1) Fluorescence Anisotropy – compound titration
# Compound titration assays were performed by titrating compounds (in 1% DMSO, starting at 500 μM) in a 2-fold dilution series to preformed complex of fluorescein -labeled Tau pS2 (10 nM) and 14 -3-3ζ (100 nM) (which represents approximately 20% bound Tau pS2 peptide to 14 -3-3ζ to allow further complex formation by addition of fragments 1) in FA buffer (10 mM HEPES pH 7.4, 150 mM NaCl, 50 µM TCEP, 0.1% (v/v) Tween20, 0.1% (w/v) BSA). […] Measurements were performed directly after plate preparation, using a Tecan SPARK plate reader at room temperature ( λex: 485±20 nm; λem: 535±25 nm; mirror: automatic; flashes: 30; settle time: 1 ms; gain: optimal; Z -position: calculated from well). […] All data were analyzed using GraphPad Prism (10.0.1) and fitted with a four -parameter logistic model (4PL) to determine binding affinities (dissociation constant, KD). […]
row,Structure (SMILES),PPI stabilizing activity (in words)
1,O=Cc1ccc(-n2ccnc2-c2cccc(O)c2)cc1Br [Compound 9],slightly inhibited 14-3-3ζ/Tau pS2 peptide complex formation
2,CC(C)c1ccc(-c2nccn2-c2ccc(C=O)c(Br)c2)cc1 [Compound 19],completely diminished PPI stabilization
3,O=Cc1ccc(-n2ccnc2-c2ccc(OCCO)cc2)cc1Br [Compound 24],did not show an improvement in PPI stabilization

# Biological target: T1, 14-3-3ζ/Tau pS2 peptide interaction
# Assay: Fluorescence anisotropy 14-3-3ζ titration in the presence of 250 μM compound and Tau pS2 peptide
# Assay type: binding
# Settings: 250 μM compound; apparent KD compared to internal DMSO reference
# Description: On the other hand, the PPI stabilizing potency of series 1 compounds was highly dependent on the position and chemical property of the substituent. […] The compound screen for these compounds was further complemented by 14-3-3ζ titration assays in the presence of a constant concentration of compound (250 μM) and Tau pS2 peptide (10 nM) (Fig. 3c, ESI ^† Fig. S6).
# This statement is strengthened by the diminished stabilizing activity when shifting the more polar chloro substituent from the para (14) to the ortho (5) to the meta position (8), respectively. […]
# chromatography (HisTrap high performance cartridges, Cytiva). Typically two 5 mL columns were used for a 2 L culture in which the lysate was loaded on the column, washed with 10 CV wash buffer (50 mM Hepes, pH 8.0, 300 mM NaCl, 25 mM imidazole, 2 mM βME), and eluted with several fractions (2-4 CV) of elution buffer (50 mM Hepes, pH 8.0, 300 mM NaCl, 250 mM imidazole, 2 mM βME). Fractions containing the 14-3-3 protein were combined and dialyzed into 25 mM HEPES pH 8.0, 200 mM NaCl, 10 mM MgCl2, 2 mM βME, followed by dialysis into 25 mM HEPES, 100 mM NaCl, 10 mM MgCl2, 500 μM TCEP (adjusted to pH 8.0). Dialyzed protein was concentrated to ∼40 mg/mL, analyzed by Q -Tof LC/MS, and aliquots were flash -frozen for storage at −80 °C. For 14 -3-3σ∆c, 1 mg TEV per 100 mg purified protein was added to the dialysis to remove the purification tag. The cleaved sample was then again loaded on a 10 mL Ni-NTA column to separate the cleaved product from the expression tag and residual uncleaved protein. The flowthrough was loade d on a Superdex 75 pg 16/60 size exclusion column (GE Life Sciences) using 25 mM HEPES, 100 mM NaCl, 10 mM MgCl2, 500 μM TCEP (adjusted to pH = 8.0) as running buffer. Fractions containing the 14 -3-3 protein were pooled and concentrated to ∼60 mg/mL, analyzed Q -Tof LC/MS, and aliquots were flash -frozen for storage at −80°C.
# as §1
# Compound titration assays were performed by titrating compounds (in 1% DMSO, starting at 500 μM) in a 2-fold dilution series to preformed complex of fluorescein -labeled Tau pS2 (10 nM) and 14 -3-3ζ (100 nM) (which represents approximately 20% bound Tau pS2 peptide to 14 -3-3ζ to allow further complex formation by addition of fragments 1) in FA buffer (10 mM HEPES pH 7.4, 150 mM NaCl, 50 µM TCEP, 0.1% (v/v) Tween20, 0.1% (w/v) BSA). Dilution series were made in polystyrene low -volume 384 -well plates (Corning #4514, Black Round Bottom). Measurements were performed directly after plate preparation, using a Tecan SPARK plate reader at room temperature ( λex: 485±20 nm; λem: 535±25 nm; mirror: automatic; flashes: 30; settle time: 1 ms; gain: optimal; Z -position: calculated from well). Wells containing only fluorescein labelled peptide were used to set as G -factor calibrated from these wells. All data were analyzed using GraphPad Prism (10.0.1) and fitted with a four -parameter logistic model (4PL) to determine binding affinities (dissociation constant, KD). All data shown is background corrected for the signal without 14 -3-3ζ and the mean and standard deviation of technical duplicate is plotted, assay performed in a scientific duplicate for hit compounds.
# Fluorescence Anisotropy – 14-3-3 titrations in the presence of compound To characterize the affinity of the Tau peptides for 14-3-3 in the presence of compound, 14-3-3ζ or γ was titrated in a 2-fold dilution series starting at 400 (for the 14-3-3ζ titrations to Tau pS2) or 800 (for the 14-3-3γ titrations to Tau pS214 or pS324) µM. 14-3-3 was added to 10 nM of fluorescein-labeled peptide (Tau pS2, Tau pS214 or Tau pS324) in the presence of 250 µM compound (1% DMSO). The assays were performed in a similar way as described above. Data shown is the average and standard deviation of a technical duplicate, top plateau corrected where needed, assay performed in a scientific duplicate.
# Fluorescence Anisotropy – peptide screen […]
row,Structure (SMILES),SF250μM (stabilization factor)
1,O=Cc1ccc(-n2c(-c3cccnc3)nc3ccccc32)cc1Br [Compound 2],20
2,Cc1ccccc1-c1nccn1-c1ccc(C=O)c(Br)c1 [Compound 3],11
3,O=Cc1ccc(-n2ccnc2-c2ccccc2Cl)cc1Br [Compound 5],7.5
4,O=Cc1ccc(-n2ccnc2-c2ccc(N3CCOCC3)cc2)cc1Br [Compound 23],16
5,O=Cc1ccc(-n2ccnc2-c2ccccc2)cc1Cl [Compound 25],15
6,O=Cc1ccc(-n2ccnc2-c2ccccc2)cc1I [Compound 26],1.8
7,O=Cc1ccc(-n2ccnc2-c2ccccc2)cc1C(F)(F)F [Compound 27],6.1
8,COc1ccc(-c2nc3ccccc3n2-c2ccc(C=O)c(Br)c2)cc1 [Compound 29],8.3
9,O=Cc1ccc(-n2c(-c3ccc(OCCO)cc3)nc3ccccc32)cc1Br [Compound 31],19
10,O=Cc1ccc(-n2ccnc2-c2cccc3cccnc23)cc1Br [Compound 33],4.3

# Same assay, conditions: screening hits
row,Structure (SMILES),stabilization of the 14-3-3ζ/Tau pS2 peptide complex [fold]
1,O=Cc1ccc(-n2c(-c3cccnc3)nc3ccccc32)cc1Br [Compound 2],20

# Source: publication PMC11892739, “Site-specific molecular glues for the 14-3-3/Tau pS214 protein–protein interaction via reversible covalent imine tethering” (RSC Medicinal Chemistry, 2025)
